Data taken from US8592456B2 (4SC Discovery GmbH, priority 2011, dated 2013).
pIC50: −log10 of the molar value. Like-named read-outs stand apart in the source and are kept apart here.

System: PBMC (T cell proliferation)
Assay: T cell proliferation assay, PHA-stimulated human PBMC (BrdU ELISA)
Assay type: cell-based
Outline: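 Healthy-donor human PBMC, Ficoll-isolated, seeded 1×10^5 cells/well in RPMI1640 with 10% dialyzed FCS, stimulated with 2 μg/ml PHA alongside test compound. Proliferation read after 48 hours by BrdU ELISA.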

[1] = PHA-stimulated human PBMC, 48 hours, BrdU, column D, activity classes 1-4, read-out: IC50 (Tcell proliferation)
[2] = human PBMC, 2 μg/ml PHA, 48 hours, BrdU, read-out: D: IC50 (Tcell proliferation)

SMILES: COc1cccc(Cl)c1-c1noc(-c2cnn(-c3ccccc3Cl)c2C(F)(F)F)c1-c1cnco1 [IB-34, 3-(2-chloro-6-methoxyphenyl)-5-(1-(2-chlorophenyl)-5-(trifluoromethyl)-1H-pyrazol-4-yl)-4-(oxazol-5-yl)isoxazole]
- pIC50 [1]: 6.00 to 7.00

SMILES: Cc1nnc(-c2c(-c3c(F)cccc3Cl)noc2-c2cnn(-c3ccncc3)c2C(F)(F)F)s1 [IB-22, 3-(2-chloro-6-fluorophenyl)-4-(5-methyl-1,3,4-thiadiazol-2-yl)-5-(1-(pyridin-4-yl)-S-(trifluoromethyl)-1H-pyrazol-4-yl)isoxazole]
- pIC50 [1]: 6.00 to 7.00

SMILES: COC(=O)c1c(-c2c(F)cccc2Cl)noc1-c1cnn(-c2cc(Cl)cc(Cl)c2)c1C(F)(F)F [Example 68, methyl 3-(2-chloro-6-fluorophenyl)-5-(1-(3,5-dichlorophenyl)-5-(trifluoromethyl)-1H-pyrazol-4-yl)isoxazole-4-carboxylate]
- pIC50 [2]: 7.00 to 8.00

SMILES: Fc1ccccc1-n1ncc(-c2onc(-c3c(F)cccc3Cl)c2-c2nccs2)c1C(F)(F)F [IB-30, 3-(2-chloro-6-fluorophenyl)-5-(1-(2-fluorophenyl)-5-(trifluoromethyl)-1H-pyrazol-4-yl)-4-(thiazol-2-yl)isoxazole]
- pIC50 [1]: 7.00 to 8.00

SMILES: Fc1cccc(Cl)c1-c1noc(-c2cnn(-c3cccnc3)c2C(F)(F)F)c1-c1nnco1 [IB-15, 2-(3-(2-chloro-6-fluorophenyl)-5-(1-(pyridin-3-yl)-5-(trifluoromethyl)-1H-pyrazol-4-yl)isoxazol-4-yl)-1,3,4-oxadiazole]
- pIC50 [1]: 6.00 to 7.00

SMILES: CCOC(=O)c1c(-c2ccncc2F)noc1-c1cnn(-c2cccc(NC(C)=O)c2)c1C(F)(F)F [Example B-6, ethyl 5-(1-(3-acetamidophenyl)-5-(trifluoromethyl)-1H-pyrazol-4-yl)-3-(3-fluoropyridin-4-yl)isoxazole-4-carboxylate]
- pIC50 [2]: 6.00 to 7.00

SMILES: NC(=S)c1c(-c2c(F)cccc2Cl)noc1-c1cnn(-c2ccccc2F)c1C(F)(F)F [Example B-102, 3-(2-chloro-6-fluorophenyl)-5-(1-(2-fluorophenyl)-5-(trifluoromethyl)-1H-pyrazol-4-yl)isoxazole-4-carbothioamide]
- pIC50 [2]: 6.00 to 7.00

SMILES: CCOC(=O)c1c(-c2c(F)cccc2Cl)noc1-c1cnn(-c2ccccc2F)c1C(F)(F)F [Example 42, Ethyl 3-(2-chloro-6-fluorophenyl)-5-[1-(2-fluorophenyl)-5-(trifluoromethyl)-1H-pyrazol-4-yl]isoxazole-4-carboxylate]
- pIC50 [2]: 7.00 to 8.00

SMILES: Fc1cccc(Cl)c1-c1noc(-c2cnn(-c3ccccc3Cl)c2C(F)(F)F)c1-c1nccs1 [IB-29, 3-(2-chloro-6-fluorophenyl)-5-(1-(2-chlorophenyl)-5-(trifluoromethyl)-1H-pyrazol-4-yl)-4-(thiazol-2-yl)isoxazole]
- pIC50 (Homo sapiens, 48 h, read-out: IC50 (Tcell proliferation)): 5.00 to 6.00

SMILES: O=C(c1c(-c2ccccc2Cl)noc1-c1cnn(-c2cccc(Cl)c2)c1C(F)(F)F)N1CCCO1 [Example B-62, (3-(2-chlorophenyl)-5-(1-(3-chlorophenyl)-5-(trifluoromethyl)-1H-pyrazol-4-yl)isoxazol-4-yl)(isoxazolidin-2-yl)methanone]
- pIC50 [2]: 7.00 to 8.00

SMILES: COC(=O)c1c(-c2c(F)cccc2Cl)noc1-c1cnn(-c2ccccc2)c1C(F)(F)F [Example 48, methyl 3-(2-chloro-6-fluorophenyl)-5-(1-phenyl-5-(trifluomethyl)1H-pyrazol-4-yl)isoxazole-4-carboxylate]
- pIC50 [2]: 7.00 to 8.00

SMILES: COC(=O)c1c(-c2ccc(Cl)c(Cl)c2)noc1-c1cnn(-c2cccc(F)c2)c1C(F)(F)F [Example 97, methyl 3-(3,4-dichlorophenyl)-5-(1-(3-fluorophenyl)-5-(trifluoromethyl)-1H-pyrazol-4-yl)isoxazole-4-carboxylate]
- pIC50 [2]: 5.00 to 6.00

SMILES: Fc1cccc(-n2ncc(-c3onc(-c4c(F)cccc4Cl)c3Br)c2C(F)(F)F)c1 [Example 137, 4-bromo-3-(2-chloro-6-fluorophenyl)-5-(1-(3-fluorophenyl)-5-(trifluoromethyl)-1H-pyrazol-4-yl)isoxazole]
- pIC50 [2]: 7.00 to 8.00

SMILES: COCCn1ncc(-c2onc(-c3c(F)cccc3Cl)c2C(=O)OC)c1C(F)(F)F [Example 102, methyl 3-(2-chloro-6-fluorophenyl)-5-(1-(2-methoxyethyl)-5-(trifluoromethyl)-H-pyrazol-4-yl)isoxazole-4-carboxylate]
- pIC50 [2]: 6.00 to 7.00

SMILES: Fc1cccc(Cl)c1-c1noc(-c2cnn(-c3cccc(Cl)c3)c2C(F)(F)F)c1-c1nnn[nH]1 [Example I-3, 3-(2-chloro-6-fluorophenyl)-5-(1-(3-chlorophenyl)-5-(trifluoromethyl)-1H-pyrazol-4-yl)-4-(1H-tetrazol-5-yl)isoxazole]
- pIC50 [1]: 5.00 to 6.00

SMILES: CC(C)OC(=O)c1c(-c2c(F)cccc2Cl)noc1-c1cnn(-c2ccccc2Cl)c1C(F)(F)F [Example B-60]
- pIC50 [2]: 5.00 to 6.00

SMILES: CC(C)OC(=O)c1c(-c2c(F)cccc2Cl)noc1-c1cnn(-c2ccncc2)c1C(F)(F)F [Example B-82, isopropyl 3-(2-chloro-6-fluorophenyl)-5-(1-(pyridin-4-yl)-5-(trifluoromethyl)-1H-pyrazol-4-yl)isoxazole-4-carboxylate]
- pIC50 [2]: 7.00 to 8.00

SMILES: CCOC(=O)c1c(-c2ccncc2F)noc1-c1cnn(-c2ccccn2)c1C(F)(F)F [Example B-8, ethyl 3-(3-fluoropyridin-4-yl)-5-(1-(pyridin-2-yl)-5-(trifluoromethyl)-1H-pyrazol-4-yl)isoxazole-4-carboxylate]
- pIC50 [2]: 5.00 to 6.00

SMILES: Fc1cccc(Cl)c1-c1noc(-c2cnn(-c3ccncc3)c2C(F)(F)F)c1-c1cnco1 [IB-33, 3-(2-chloro-6-fluorophenyl)-4-(oxazol-5-yl)-5-(1-(pyridin-4-yl)-5-(trifluoromethyl)-1H-pyrazol-4-yl)isoxazole]
- pIC50 [1]: 5.00 to 6.00

SMILES: CCOC(=O)c1c(-c2c(F)cccc2Cl)noc1-c1cnn(-c2ccccn2)c1C(F)(F)F [Example B-84, ethyl 3-(2-chloro-6-fluorophenyl)-5-(1-(pyridin-2-yl)-5-(trifluoromethyl)-1H-pyrazol-4-yl)isoxazole-4-carboxylate]
- pIC50 [2]: > 8.00

SMILES: O=CNc1c(-c2c(F)cccc2Cl)noc1-c1cnn(-c2cccc(Cl)c2)c1C(F)(F)F [Example B-48, N-(3-(2-chloro-6-fluorophenyl)-5-(1-(3-chlorophenyl)-5-(trifluoromethyl)-1H-pyrazol-4-yl)isoxazol-4-yl)formamide]
- pIC50 [2]: 5.00 to 6.00

SMILES: NS(=O)(=O)c1cccc(-n2ncc(-c3onc(-c4c(F)cccc4Cl)c3-c3nnco3)c2C(F)(F)F)c1 [IB-17, 3-(4-(3-(2-chloro-6-fluorophenyl)-4-(1,3,4-oxadiazol-2-yl)isoxazol-5-yl)-5-(trifluoromethyl)-1H-pyrazol-1-yl)benzenesulfonamide]
- pIC50 [1]: 5.00 to 6.00

SMILES: O=C(c1c(-c2c(F)cccc2Cl)noc1-c1cnn(-c2cccc(F)c2)c1C(F)(F)F)N1CCCO1 [Example 118, (3-(2-chloro-6-fluorophenyl)-5-(1-(3-fluorophenyl)-5-(trifluoromethyl)-1H-pyrazol-4-yl)isoxazol-4-yl)(isoxazolidin-2-yl)methanone]
- pIC50 [2]: 7.00 to 8.00

SMILES: CC(C)OC(=O)c1c(-c2c(F)cccc2Cl)noc1-c1cnn(-c2cccnc2)c1C(F)(F)F [Example B-61, isopropyl 3-(2-chloro-6-fluorophenyl)-5-(1-(pyridin-3-yl)-5-(trifluoromethyl)-1H-pyrazol-4-yl)isoxazole-4-carboxylate]
- pIC50 [2]: 7.00 to 8.00

SMILES: CCOC(=O)c1c(-c2ccccc2F)noc1-c1cnn(-c2cccc(F)c2)c1C(F)(F)F [Example 90, ethyl 3-(2-fluorophenyl)-5-(1-(3-fluorophenyl)-5-(trifluoromethyl)-1H-pyrazol-4-yl)isoxazole-4-carboxylate]
- pIC50 [2]: 6.00 to 7.00

SMILES: COC(=O)c1c(-c2c(F)cccc2Cl)noc1-c1cnn(-c2ccc(Cl)cc2Cl)c1C(F)(F)F [Example 7, methyl 3-(2-chloro-6-fluorophenyl)-5-(1-(2,4-dichlorophenyl)-5-(trifluoromethyl)-1H-pyrazol-4-yl)isoxazole-4-carboxylate]
- pIC50 [2]: 5.00 to 6.00

SMILES: CNC(=O)c1c(-c2c(F)cccc2Cl)noc1-c1cnn(-c2ccc(F)cc2F)c1C(F)(F)F [Example 57, 3-(2-chloro-6-fluorophenyl)-5-(1-(2,4-difluorophenyl)-5-(trifluoromethyl)-1H-pyrazol-4-yl)-N-methylisoxazole-4-carboxamide]
- pIC50 [2]: 5.00 to 6.00

SMILES: NC(=O)c1c(-c2c(F)cccc2Cl)noc1-c1cnn(-c2cccc(F)c2)c1C(F)(F)F [Example 124, 3-(2-chloro-6-fluorophenyl)-5-(1-(3-fluorophenyl)-5-(trifluoromethyl)-1H-pyrazol-4-yl)isoxazole-4-carboxamide]
- pIC50 [2]: 5.00 to 6.00

SMILES: CC(C)OC(=O)c1c(-c2c(F)cccc2Cl)noc1-c1cnn(-c2cccc(S(N)(=O)=O)c2)c1C(F)(F)F [Example B-73, isopropyl 3-(2-chloro-6-fluorophenyl)-5-(1-(3-sulfamoylphenyl)-5-(trifluoromethyl)-1H-pyrazol-4-yl)isoxazole-4-carboxylate]
- pIC50 [2]: 5.00 to 6.00

SMILES: Fc1ccc(-n2ncc(-c3onc(-c4c(F)cccc4Cl)c3Br)c2C(F)(F)F)c(F)c1 [Example B-24, 4-bromo-3-(2-chloro-6-fluorophenyl)-5-(1-(2,4-difluorophenyl)-5-(trifluoromethyl)-1H-pyrazol-4-yl)isoxazole]
- pIC50 [2]: 5.00 to 6.00

SMILES: Cc1nnc(-c2c(-c3c(F)cccc3Cl)noc2-c2cnn(-c3ccccc3F)c2C(F)(F)F)s1 [Example I-12, 3-(2-chloro-6-fluorophenyl)-5-(1-(2-fluorophenyl)-5-(trifluoromethyl)-1H-pyrazol-4-yl)-4-(5-methyl-1,3,4-thiadiazol-2-yl)isoxazole]
- pIC50 [1]: 6.00 to 7.00

SMILES: Fc1cccc(Cl)c1-c1noc(-c2cnn(-c3cccc(Cl)c3)c2C(F)(F)F)c1-c1nncs1 [IB-8, 3-(2-chloro-6-fluorophenyl)-5-(1-(3-chlorophenyl)-5-(trifluoromethyl)-1H-pyrazol-4-yl)-4-(1,3,4-thiadiazol-2-yl)isoxazole]
- pIC50 [1]: > 8.00
